Columns and labels:
Test in all cases: Kinase panel radiometric filter binding (33P-ATP)
Type in all cases: biochemical
[1] = biological target: CHK1 (Homo sapiens, UniProt O14757); parameters: dose or concentration left out as unconfirmed
Summary of the method: (§1)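 Read-out: % remaining kinase activity (± s.d.) from 33P incorporation captured by filter binding, with each compound tested at 1 µM across 140 kinases. pIC50 is reported where residual activity was under 20%.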

[2] = biological target: EPH-B4 (Homo sapiens, UniProt P54760); parameters: dose or concentration left out as unconfirmed
Summary of the method: as §1

[3] = biological target: ERK2 (Homo sapiens, UniProt P28482); parameters: dose or concentration left out as unconfirmed
Summary of the method: as §1

[4] = biological target: HIPK3 (Homo sapiens, UniProt Q9H422); parameters: dose or concentration left out as unconfirmed
Chain of HIPK3 (Q9H422 whole entry): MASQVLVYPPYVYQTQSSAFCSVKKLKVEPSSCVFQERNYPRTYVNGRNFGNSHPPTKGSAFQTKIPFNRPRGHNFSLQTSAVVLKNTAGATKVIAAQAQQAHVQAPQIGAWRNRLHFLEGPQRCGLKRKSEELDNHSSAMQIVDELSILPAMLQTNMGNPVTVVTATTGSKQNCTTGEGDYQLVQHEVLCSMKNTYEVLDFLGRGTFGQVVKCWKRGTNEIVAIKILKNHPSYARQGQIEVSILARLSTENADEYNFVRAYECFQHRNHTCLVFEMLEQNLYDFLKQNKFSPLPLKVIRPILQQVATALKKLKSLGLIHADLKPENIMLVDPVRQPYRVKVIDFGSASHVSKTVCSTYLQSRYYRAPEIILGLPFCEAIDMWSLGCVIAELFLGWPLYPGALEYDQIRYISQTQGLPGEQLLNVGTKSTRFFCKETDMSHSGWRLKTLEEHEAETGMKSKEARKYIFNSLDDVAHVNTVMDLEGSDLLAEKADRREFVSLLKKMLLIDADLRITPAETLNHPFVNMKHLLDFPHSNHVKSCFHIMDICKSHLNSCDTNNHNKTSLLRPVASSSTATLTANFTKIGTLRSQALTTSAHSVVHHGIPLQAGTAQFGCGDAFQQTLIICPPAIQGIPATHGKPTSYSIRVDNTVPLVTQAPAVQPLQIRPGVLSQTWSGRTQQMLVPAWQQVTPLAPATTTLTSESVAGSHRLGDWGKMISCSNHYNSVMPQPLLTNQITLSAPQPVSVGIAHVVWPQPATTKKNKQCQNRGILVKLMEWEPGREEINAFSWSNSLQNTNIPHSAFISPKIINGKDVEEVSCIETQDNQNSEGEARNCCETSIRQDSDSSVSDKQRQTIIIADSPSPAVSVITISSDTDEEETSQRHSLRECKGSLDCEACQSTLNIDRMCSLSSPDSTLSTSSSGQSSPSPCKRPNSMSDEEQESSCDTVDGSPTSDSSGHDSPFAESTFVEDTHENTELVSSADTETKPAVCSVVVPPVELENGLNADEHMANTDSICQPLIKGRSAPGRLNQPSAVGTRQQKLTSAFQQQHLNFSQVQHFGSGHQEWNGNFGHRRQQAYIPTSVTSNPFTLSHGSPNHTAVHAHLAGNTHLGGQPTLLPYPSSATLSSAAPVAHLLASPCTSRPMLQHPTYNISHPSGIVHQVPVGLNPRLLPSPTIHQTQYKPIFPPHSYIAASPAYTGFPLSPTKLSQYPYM
Summary of the method: as §1

[5] = biological target: IRAK1 (Homo sapiens, UniProt P51617); parameters: dose or concentration left out as unconfirmed
Chain of IRAK1 (P51617 whole entry): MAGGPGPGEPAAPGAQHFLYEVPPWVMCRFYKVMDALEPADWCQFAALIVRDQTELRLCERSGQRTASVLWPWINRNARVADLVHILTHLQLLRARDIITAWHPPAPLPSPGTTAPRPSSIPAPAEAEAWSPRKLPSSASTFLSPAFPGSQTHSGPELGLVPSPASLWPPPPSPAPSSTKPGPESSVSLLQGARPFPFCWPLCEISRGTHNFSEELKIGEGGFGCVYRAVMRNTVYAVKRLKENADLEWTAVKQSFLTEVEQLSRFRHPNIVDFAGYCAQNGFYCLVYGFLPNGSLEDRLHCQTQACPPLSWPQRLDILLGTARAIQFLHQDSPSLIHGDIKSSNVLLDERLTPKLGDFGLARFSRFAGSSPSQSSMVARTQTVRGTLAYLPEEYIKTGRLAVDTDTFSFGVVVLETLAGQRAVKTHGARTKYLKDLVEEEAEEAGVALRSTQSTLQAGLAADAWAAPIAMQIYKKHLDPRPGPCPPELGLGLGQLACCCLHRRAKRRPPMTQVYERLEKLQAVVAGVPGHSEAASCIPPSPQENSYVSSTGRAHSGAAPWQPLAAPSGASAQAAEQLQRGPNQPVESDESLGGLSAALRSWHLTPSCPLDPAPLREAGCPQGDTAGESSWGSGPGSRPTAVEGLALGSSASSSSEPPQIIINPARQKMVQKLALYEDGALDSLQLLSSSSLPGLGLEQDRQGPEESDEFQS
Summary of the method: as §1

[6] = biological target: JNK2 (Homo sapiens, UniProt P45984); parameters: dose or concentration left out as unconfirmed
Summary of the method: as §1

[7] = biological target: MLK3 (Homo sapiens, UniProt Q16584); parameters: dose or concentration left out as unconfirmed
Summary of the method: as §1

[8] = biological target: MNK2 (Homo sapiens, UniProt Q9HBH9); parameters: dose or concentration left out as unconfirmed
Chain of MNK2 (Q9HBH9 whole entry): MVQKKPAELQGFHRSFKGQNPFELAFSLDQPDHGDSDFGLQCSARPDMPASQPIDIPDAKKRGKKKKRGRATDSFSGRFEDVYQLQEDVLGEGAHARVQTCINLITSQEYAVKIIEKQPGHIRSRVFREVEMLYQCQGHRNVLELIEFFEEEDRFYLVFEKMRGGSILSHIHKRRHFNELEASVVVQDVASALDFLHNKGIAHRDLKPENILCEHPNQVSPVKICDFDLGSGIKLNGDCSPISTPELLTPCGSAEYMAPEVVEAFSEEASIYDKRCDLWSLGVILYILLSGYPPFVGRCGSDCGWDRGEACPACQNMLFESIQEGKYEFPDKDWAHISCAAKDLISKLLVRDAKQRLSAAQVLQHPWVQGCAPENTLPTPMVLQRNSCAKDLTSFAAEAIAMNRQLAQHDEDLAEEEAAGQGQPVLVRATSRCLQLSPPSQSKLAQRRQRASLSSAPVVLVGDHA
Summary of the method: as §1

[9] = biological target: PAK6 (Homo sapiens, UniProt Q9NQU5); parameters: dose or concentration left out as unconfirmed
Summary of the method: as §1

[10] = biological target: PIM1 (Homo sapiens, UniProt P11309); parameters: dose or concentration left out as unconfirmed
Summary of the method: as §1

[11] = biological target: PKD1 (Homo sapiens, UniProt Q15139); parameters: dose or concentration left out as unconfirmed
Summary of the method: as §1

[12] = biological target: PLK1 (Homo sapiens, UniProt P53350); parameters: dose or concentration left out as unconfirmed
Summary of the method: as §1

[13] = biological target: STK33 (Homo sapiens, UniProt Q9BYT3); parameters: dose or concentration left out as unconfirmed
Summary of the method: as §1

[14] = biological target: IR (Homo sapiens, UniProt P06213); parameters: % activity remaining: dose or concentration left out as unconfirmed; details: for % activity remaining: IR
Chain of IR (P06213 28-1382): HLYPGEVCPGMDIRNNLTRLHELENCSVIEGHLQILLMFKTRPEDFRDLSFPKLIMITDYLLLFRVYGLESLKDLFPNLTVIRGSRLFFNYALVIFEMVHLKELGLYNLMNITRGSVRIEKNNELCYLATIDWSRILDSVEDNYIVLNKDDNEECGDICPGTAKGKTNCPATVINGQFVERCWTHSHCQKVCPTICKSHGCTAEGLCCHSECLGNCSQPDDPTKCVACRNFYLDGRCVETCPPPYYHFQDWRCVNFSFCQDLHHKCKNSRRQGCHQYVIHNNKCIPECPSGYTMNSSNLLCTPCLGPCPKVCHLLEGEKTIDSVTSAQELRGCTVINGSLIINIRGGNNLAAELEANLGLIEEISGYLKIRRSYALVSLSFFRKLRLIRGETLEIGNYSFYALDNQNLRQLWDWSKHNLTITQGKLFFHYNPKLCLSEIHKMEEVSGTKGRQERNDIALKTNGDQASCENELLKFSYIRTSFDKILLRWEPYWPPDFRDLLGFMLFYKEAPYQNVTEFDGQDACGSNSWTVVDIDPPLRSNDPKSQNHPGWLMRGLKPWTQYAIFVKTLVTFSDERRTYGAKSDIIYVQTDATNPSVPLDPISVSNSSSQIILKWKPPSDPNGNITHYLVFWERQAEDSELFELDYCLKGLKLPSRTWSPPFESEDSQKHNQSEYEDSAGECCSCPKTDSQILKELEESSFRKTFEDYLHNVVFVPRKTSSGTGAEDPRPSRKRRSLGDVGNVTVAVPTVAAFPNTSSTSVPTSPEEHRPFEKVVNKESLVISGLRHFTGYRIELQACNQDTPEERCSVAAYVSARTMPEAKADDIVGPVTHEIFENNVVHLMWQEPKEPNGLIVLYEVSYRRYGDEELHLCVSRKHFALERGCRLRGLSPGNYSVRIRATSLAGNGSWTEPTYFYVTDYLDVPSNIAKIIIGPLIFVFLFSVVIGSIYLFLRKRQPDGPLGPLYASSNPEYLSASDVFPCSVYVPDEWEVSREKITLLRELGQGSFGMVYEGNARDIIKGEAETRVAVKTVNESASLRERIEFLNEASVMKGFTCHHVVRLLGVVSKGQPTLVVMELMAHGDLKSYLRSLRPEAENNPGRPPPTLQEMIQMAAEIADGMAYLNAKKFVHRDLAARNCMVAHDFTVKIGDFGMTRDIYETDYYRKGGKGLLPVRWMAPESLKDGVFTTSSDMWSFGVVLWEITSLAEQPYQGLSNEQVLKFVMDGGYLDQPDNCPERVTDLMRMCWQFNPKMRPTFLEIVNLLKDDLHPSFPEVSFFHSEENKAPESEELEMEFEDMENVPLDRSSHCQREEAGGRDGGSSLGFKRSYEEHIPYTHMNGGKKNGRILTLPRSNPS
Procedure: (§2) Table S4: AMPKA kinase activity data (ADP-Glo assay)
(§3) Compound pIC50 (Fold selectivity
(§4) Table S5. Kinase selectivity screening for 9 and 24 at 1 µM against a general kinase panel of 140 targets
(§5) in radiometric filter binding assay using 33P-γ−ATP at the MRC PPU International Centre for Kinase
(§6) Profiling, University of Dundee. pIC50 values were determined for compounds with <20% activity
(§7) Kinase activity s.d. pIC50 activity s.d. pIC50

[15] = biological target: T1, MARK2 (Homo sapiens, UniProt Q7KZI7); parameters: % activity remaining: dose or concentration left out as unconfirmed; details: for % activity remaining: MARK2
T1 construct: purchased MRC PPU
T1 sequence (Q7KZI7 whole entry): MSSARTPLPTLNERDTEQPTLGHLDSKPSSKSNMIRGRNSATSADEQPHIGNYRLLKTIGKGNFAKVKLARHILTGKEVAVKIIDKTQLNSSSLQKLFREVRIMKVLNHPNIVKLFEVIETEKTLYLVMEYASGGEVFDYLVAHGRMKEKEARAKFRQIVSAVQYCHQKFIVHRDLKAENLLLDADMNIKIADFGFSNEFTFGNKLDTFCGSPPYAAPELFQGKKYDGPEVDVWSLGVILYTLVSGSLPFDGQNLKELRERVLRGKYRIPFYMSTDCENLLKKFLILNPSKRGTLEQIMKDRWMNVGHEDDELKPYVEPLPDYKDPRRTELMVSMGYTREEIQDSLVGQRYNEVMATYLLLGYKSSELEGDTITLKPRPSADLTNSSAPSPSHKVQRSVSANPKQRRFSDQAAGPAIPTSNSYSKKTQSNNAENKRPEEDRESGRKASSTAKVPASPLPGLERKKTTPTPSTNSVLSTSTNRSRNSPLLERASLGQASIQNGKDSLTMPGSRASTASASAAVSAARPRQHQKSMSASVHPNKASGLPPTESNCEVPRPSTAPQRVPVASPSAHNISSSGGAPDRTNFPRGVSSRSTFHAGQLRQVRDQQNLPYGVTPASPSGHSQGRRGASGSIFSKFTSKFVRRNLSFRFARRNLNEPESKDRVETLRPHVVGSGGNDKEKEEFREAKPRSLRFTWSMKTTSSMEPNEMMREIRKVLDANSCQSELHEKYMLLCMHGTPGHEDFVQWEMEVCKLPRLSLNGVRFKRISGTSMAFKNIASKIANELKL
Procedure: as §2, §3, §4, §5, §6, §7

[16] = biological target: T2, MARK4 (Homo sapiens, UniProt Q96L34); parameters: % activity remaining: dose or concentration left out as unconfirmed; details: for % activity remaining: MARK4
T2 construct: purchased MRC PPU
T2 sequence (Q96L34 1-752): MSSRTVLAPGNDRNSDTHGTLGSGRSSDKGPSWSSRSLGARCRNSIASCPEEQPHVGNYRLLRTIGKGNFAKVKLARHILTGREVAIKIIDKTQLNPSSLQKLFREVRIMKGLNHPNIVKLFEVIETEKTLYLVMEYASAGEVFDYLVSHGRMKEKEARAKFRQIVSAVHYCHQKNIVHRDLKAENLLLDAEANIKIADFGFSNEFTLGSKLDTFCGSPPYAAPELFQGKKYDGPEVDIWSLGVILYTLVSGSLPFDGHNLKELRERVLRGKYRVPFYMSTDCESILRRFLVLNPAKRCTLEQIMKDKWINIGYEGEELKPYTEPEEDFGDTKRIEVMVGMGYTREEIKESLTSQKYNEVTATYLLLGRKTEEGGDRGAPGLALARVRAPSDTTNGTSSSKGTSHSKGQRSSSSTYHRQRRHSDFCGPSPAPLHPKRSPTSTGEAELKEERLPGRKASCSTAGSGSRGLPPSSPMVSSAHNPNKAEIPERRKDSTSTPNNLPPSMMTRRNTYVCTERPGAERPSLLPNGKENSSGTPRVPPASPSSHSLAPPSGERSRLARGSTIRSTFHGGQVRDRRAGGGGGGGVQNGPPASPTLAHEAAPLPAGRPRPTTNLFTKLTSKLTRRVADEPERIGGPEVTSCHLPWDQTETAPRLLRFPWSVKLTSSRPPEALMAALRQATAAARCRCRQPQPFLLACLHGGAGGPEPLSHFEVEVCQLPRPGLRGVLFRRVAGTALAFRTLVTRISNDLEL
Procedure: as §2, §3, §4, §5, §6, §7

[17] = biological target: YES1 (Homo sapiens, UniProt P07947); parameters: % activity remaining: dose or concentration left out as unconfirmed; details: for % activity remaining: YES1
Chain of YES1 (P07947 whole entry, species assumed): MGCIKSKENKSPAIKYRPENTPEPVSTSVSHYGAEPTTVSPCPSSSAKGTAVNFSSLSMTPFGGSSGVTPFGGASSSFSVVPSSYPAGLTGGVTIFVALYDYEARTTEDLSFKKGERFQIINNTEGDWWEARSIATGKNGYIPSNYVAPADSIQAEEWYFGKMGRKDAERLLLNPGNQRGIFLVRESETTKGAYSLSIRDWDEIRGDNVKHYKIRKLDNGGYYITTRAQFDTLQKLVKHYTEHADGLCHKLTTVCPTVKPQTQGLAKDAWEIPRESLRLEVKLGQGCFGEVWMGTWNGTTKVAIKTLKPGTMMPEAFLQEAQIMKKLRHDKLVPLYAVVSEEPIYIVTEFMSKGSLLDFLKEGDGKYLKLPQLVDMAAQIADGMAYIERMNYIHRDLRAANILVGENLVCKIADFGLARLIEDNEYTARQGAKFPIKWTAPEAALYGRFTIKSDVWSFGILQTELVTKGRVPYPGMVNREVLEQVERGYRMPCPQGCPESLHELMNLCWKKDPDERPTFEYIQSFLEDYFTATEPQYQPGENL
Procedure: as §2, §3, §4, §5, §6, §7

[18] = biological target: T3, NUAK1 (Homo sapiens, UniProt O60285); parameters: purchased MRC PPU; dose or concentration left out as unconfirmed
T3 sequence (O60285 1-661): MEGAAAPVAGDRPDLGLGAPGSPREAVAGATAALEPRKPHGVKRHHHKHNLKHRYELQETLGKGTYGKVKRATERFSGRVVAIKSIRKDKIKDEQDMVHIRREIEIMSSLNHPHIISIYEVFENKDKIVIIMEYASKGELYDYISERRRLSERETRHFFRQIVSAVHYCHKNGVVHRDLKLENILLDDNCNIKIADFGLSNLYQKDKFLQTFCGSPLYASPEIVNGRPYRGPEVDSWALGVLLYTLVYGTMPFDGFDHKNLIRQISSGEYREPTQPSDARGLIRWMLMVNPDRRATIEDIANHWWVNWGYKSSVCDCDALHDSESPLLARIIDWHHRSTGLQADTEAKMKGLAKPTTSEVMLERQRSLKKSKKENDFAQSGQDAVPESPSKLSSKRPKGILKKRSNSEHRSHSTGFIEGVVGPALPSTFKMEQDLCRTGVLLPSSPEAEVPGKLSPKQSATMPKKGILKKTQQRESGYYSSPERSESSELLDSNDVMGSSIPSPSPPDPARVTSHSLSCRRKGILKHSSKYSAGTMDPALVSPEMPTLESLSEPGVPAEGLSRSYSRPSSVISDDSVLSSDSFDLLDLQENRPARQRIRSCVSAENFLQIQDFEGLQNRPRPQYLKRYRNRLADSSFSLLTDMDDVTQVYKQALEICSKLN
Procedure: as §2, §3, §4, §5, §6, §7

Structure (SMILES)	% activity remaining [1] [%]	% activity remaining [2] [%]	% activity remaining [3] [%]	% activity remaining [4] [%]	% activity remaining [5] [%]	% activity remaining [6] [%]	% activity remaining [7] [%]	% activity remaining [8] [%]	% activity remaining [9] [%]	% activity remaining [10] [%]	% activity remaining [11] [%]	% activity remaining [12] [%]	% activity remaining [13] [%]	% activity remaining [14] [%]	% activity remaining [15] [%]	% activity remaining [16] [%]	% activity remaining [17] [%]	% activity remaining [18] [%]	further results
Cc1cc(=O)n(C2CCCC2)c2nc(Nc3ccc(N4CC5CC(C4)N5C)cc3)ncc12 [Compound 9]	57	61	93	112	75	35	43	56	78	90	20	32	101	14	98	49	13	5	IC50 ([14]; radiometric filter binding panel, read-out: IR pIC50 (converted)): 263 nM; inhibition at 1 µM ([15]; at 1 μM, radiometric filter binding assay, Dundee, read-out: MARK2 single point % inhibition): 2%; inhibition at 1 µM ([16]; at 1 μM, radiometric filter binding assay, Dundee, read-out: MARK4 single point % inhibition): 51%; YES1 pIC50 ([17]; radiometric filter binding panel): > 7; IC50 ([17]; radiometric filter binding panel, read-out: YES1 pIC50 (converted)): 75.9 nM
CN1C2CC1CN(c1ccc(Nc3ncc4ccn(CC5CCOCC5)c4n3)cc1)C2 [Compound 24]	75	86	114	73	71	88	91	89	118	84	54	64	93	87	101	95	46	14	

— paper PMC11831560, “Development of the Pyrido[2,3-d]pyrimidin-7(8H)-one Scaffold toward Potent and Selective NUAK1 Inhibitors” (ACS Medicinal Chemistry Letters, 2025)
